# B1: Penicillin-modified rat albumin: rat albumin modified with penicillin (conjugate, UniProt P02770 25-608, looked up)
# Albumin: EAHKSEIAHRFKDLGEQHFKGLVLIAFSQYLQKCPYEEHIKLVQEVTDFAKTCVADENAENCDKSIHTLFGDKLCAIPKLRDNYGELADCCAKQEPERNECFLQHKDDNPNLPPFQRPEAEAMCTSFQENPTSFLGHYLHEVARRHPYFYAPELLYYAEKYNEVLTQCCTESDKAACLTPKLDAVKEKALVAAVRQRMKCSSMQRFGERAFKAWAVARMSQRFPNAEFAEITKLATDVTKINKECCHGDLLECADDRAELAKYMCENQATISSKLQACCDKPVLQKSQCLAEIEHDNIPADLPSIAADFVEDKEVCKNYAEAKDVFLGTFLYEYSRRHPDYSVSLLLRLAKKYEATLEKCCAEGDPPACYGTVLAEFQPLVEEPKNLVKTNCELYEKLGEYGFQNAVLVRYTQKAPQVSTPTLVEAARNLGRVGTKCCTLPEAQRLPCVEDYLSAILNRLCVLHEKTPVSEKVTKCCSGSLVERRPCFSALTVDETYVPKEFKAETFTFHSDICTLPDKEKQIKKQTALAELVKHKPKATEDQLKTVMGDFAQFVDKCCKAADKDNCFATEGPNLVARSKEALA
# modifications: penicillin-modified
# Assays:
# [1] = tested on: NOD mice; assay: Development of autoimmune diabetes in NOD mice; assay type: in vivo, mouse; conditions: at 5.7 months; s.c. at weekly intervals, ampicillin 1300 μg or ceftriaxone 675 μg per mouse; blood sugar above 300 mg/dl on 2 measurements; control 60%
# Excerpt: Inbred female Lewis rats and NOD (non-obese diabetic) mice were supplied by the animal breeding center of the Weizmann Institute of Science, Israel, under the supervision of Harlan Laboratories and were used at 2-3 months of age. Experiments were approved by the Institutional Animal Care and Use Committee. Human peripheral blood lymphocytes from healthy donors were obtained from the blood bank of Sheba Medical Center, Tel Hashomer, Israel.
# NOD mice spontaneously develop diabetes mellitus similar to type I diabetes in humans. […] The mice were followed for the development of diabetes, marked by blood sugar above 300 mg/dl on 2 measurements.
# [2] = tested on: encephalitogenic BP10 line; assay: Adoptive EAE: BP10 T-cell line stimulated in vitro with test substance, then injected into naive rats; assay type: in vivo, rat
# Experimental: Antigen-specific T-cell lines were established from lymph node cells that had been stimulated with myelin basic protein (MBP; 10 μg/ml) for 3 days in stimulation medium as described below. Following stimulation, the T-cell blasts were isolated on LYMPHOPREP™ (Nycomed Pharma, Oslo, Norway) and seeded in propagation medium. Propagation medium was identical to stimulation medium without autologous serum, but supplemented with fetal calf serum 10% and T-cell growth factors from the supernatant of Con A stimulated spleen cells 10% (Mor et al. (1990) J Clin Invest, 85, 1594-1598). Animals were injected intra-peritoneally with 107 MBP-stimulated T cells, following 6-8 cycles of in vitro stimulations. It is known that MBP-reactive lines undergo a reduction in pathogenicity after 6 or more in vitro stimulations. In some experiments the BP10 line was stimulated with phorbol myristate acetate (PMA; 50 ng/ml) and ionomycin (500 ng/ml) for 3 days in stimulation medium, without antigen-presenting cells.
# Active EAE was induced by subcutaneous injection of 25 μg guinea-pig MBP (GpMBP) in complete Freund's adjuvant (CFA). […] Adoptive EAE was transferred by intra-peritoneal injection of guinea-pig MBP-activated cells of the BP10 line as described in Mor et al. (1993) J Clin Invest, 92, 2199-2206. […] Clinical scoring was: +1, paralysis of tail; +1.5, paresis of posterior paws and ataxia; +2, paraplegia; +3, paralysis extending to thoracic spine; +4, a moribund state.
# Treatment with cefuroxime in vivo could affect many different host agents involved in EAE or AA as well as influencing the rats' bacterial flora. To test whether the antibiotic might directly modify the behavior of effector T cells, an encephalitogenic T-cell line was stimulated in the presence or absence of cefuroxime in vitro. The weakly encephalitogenic BP10 line was used, and was stimulated for 3 days with MBP in the presence or absence of cefuroxime (50 μg/ml). The activated T cells were then washed to remove the antibiotic, the T cells were injected intra-peritoneally into naïve recipient rats (10^7 per rat), and EAE was scored. The BP10 line at later stimulations was used, when its pathogenic potential is reduced, allowing to detect both suppression and enhancement of disease. […] To rule out antigen presenting cells (APC) as the target of the beta-lactam antibiotic, the encephalitogenic BP10 line was stimulated without APC using PMA (50 ng/ml) and Ionomycin (500 ng/ml) in the presence or absence of cefuroxime.
# Additional beta-lactam antibiotics were tested for their effect on the adoptive transfer of EAE.
# A control group was injected with the untreated line.
# [3] = molecular target: T1, 67 kDa protein of human CD4 and CD8 T cells (identified as albumin) (Homo sapiens, UniProt P02768); assay: Radioactive penicillin binding assay; conditions: 10 and 20 μCi tritium-labeled, 3 days with PMA and Ionomycin; SDS-PAGE autoradiography
# T1 construct: endogenous in cells; host or cells: primary human peripheral-blood T cells (CD3+, CD4+ or CD8+) from healthy donors
# T1 sequence (P02768 25-609): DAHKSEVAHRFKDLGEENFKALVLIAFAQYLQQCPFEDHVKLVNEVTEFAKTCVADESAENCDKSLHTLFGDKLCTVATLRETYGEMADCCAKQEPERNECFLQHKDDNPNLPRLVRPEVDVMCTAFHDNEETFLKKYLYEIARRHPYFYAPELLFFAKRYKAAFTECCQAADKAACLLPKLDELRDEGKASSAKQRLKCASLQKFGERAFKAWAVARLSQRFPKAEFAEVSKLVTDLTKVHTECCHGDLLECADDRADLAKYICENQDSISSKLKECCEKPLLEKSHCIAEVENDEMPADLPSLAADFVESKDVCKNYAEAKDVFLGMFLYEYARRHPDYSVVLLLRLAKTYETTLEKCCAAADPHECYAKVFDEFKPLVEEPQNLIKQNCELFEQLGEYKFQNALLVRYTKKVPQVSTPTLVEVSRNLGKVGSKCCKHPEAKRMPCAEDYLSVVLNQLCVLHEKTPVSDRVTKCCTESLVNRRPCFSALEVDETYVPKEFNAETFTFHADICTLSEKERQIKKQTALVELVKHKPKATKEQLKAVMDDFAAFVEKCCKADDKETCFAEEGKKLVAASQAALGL
# Excerpt: Tritium labeled benzylpenicillin was obtained from Amersham (Buckinghamshire, UK; 250 μCi, 1 mCi/ml). Human CD4 or CD8 T cells were stimulated in 24 well plates, 5×10^6 cells per ml, with PMA and Ionomycin for 72 hr in the presence of 10 or 20 μCi of labeled penicillin. Following stimulation, the cells were collected, lysed and separated by SDS PAGE. The gels were fixed, treated with 1M sodium salicylate, and dried. The dried gels were exposed to x-ray film (BioMax MS film) for 14 days, with intensifying screen (BioMax TranScreen, Eastman Kodak Co., New Haven Conn., USA), and were developed.
# To test whether beta-lactam antibiotics might affect T-cell behavior likewise by covalently binding a key T-cell protein, purified CD4 or CD8 human T cells were incubated with 10 and 20 μCi of tritium-labeled lactam benzylpenicillin (Amersham, Buckinghamshire, UK) for 3 days during stimulation with PMA and Ionomycin. The stimulated T cells were collected, washed, lysed and their proteins were subjected to SDS-PAGE separation. Dried gels were exposed in intensifying screens to Xray film for 2 weeks at −80° C. […] The intensity of the band was stronger at the 20 μCi concentration of penicillin.
# [4] = molecular target: T2, albumin of human CD3 T cells (Homo sapiens, UniProt P02768); assay: Western blot with Pen 9 antibody of antibiotic-treated human T cells; assay type: cell-based; conditions: T cells activated by mitogen in presence of antibiotic
# T2 construct: endogenous in cells; host or cells: primary human peripheral-blood T cells (CD3+, CD4+ or CD8+) from healthy donors
# T2 sequence (P02768 25-609): as above
# Experimental: Rat tissues were ground with a tissue grinder in lysis buffer. The homogenate was centrifuged 14000 g for 15 min in 4° C. and the supernatant was used for western blotting. The protein concentration was determined using the BIO-RAD DC™ protein assay (Bio-Rad laboratories, Hercules, Calif.). Following electrophoresis in SDS gel in a mini-gel apparatus (Bio-Rad), the gels were electro-transferred to nitrocellulose membranes (Schleicher and schuell, Dassel, Germany). The nitrocellulose membranes were washed with distilled water for 5 min, and then blocked for 60 min. using a blocking solution composed of 2% bovine serum albumin (Fraction V, Sigma, St. Louis Mo.), 2.5% milk powder (Bio-Rad), Tris (Sigma) pH 7.5 10 mM, NaCl 150 mM and 0.02% thimerosal (Sigma). After 3×10 min. washes in PBS/TWEEN® 20 (PBS/T; 0.02%, Sigma), primary antibodies (1/1000) were incubated with the membranes in PBS/TWEEN® for 60 min. Following another series of washes in PBS/T (3×10 min), the membranes were incubated with a secondary antibody (Peroxidase conjugated anti rabbit or anti mouse, IgG Jackson ImmunoResearch, West Grove, Calif.) at a 1/2500 dilution in 2% milk in PBS solution for 60 min. After another 3×10 min washes, the membranes were incubated with the ECL reagent (for 60 seconds) and exposed to X-ray film.
# [5] = free penicillin; cited from earlier work
# [6] = molecular target: T3, albumin (Rattus norvegicus, UniProt P02770); assay: Pen 9 western blot of rat tissue lysates after intraperitoneal penicillin G; assay type: in vivo; conditions: Lewis rats, 50 mg/rat intraperitoneally, 2 hours later
# T3 construct: Rat tissues were ground with a tissue grinder in lysis buffer; from tissue; host or cells: various tissue lysates and serum of Lewis rats, 2 hours after i.p. penicillin G
# Experimental: Rat tissues were ground with a tissue grinder in lysis buffer. The homogenate was centrifuged 14000 g for 15 min in 4° C. and the supernatant was used for western blotting. The protein concentration was determined using the BIO-RAD DC™ protein assay (Bio-Rad laboratories, Hercules, Calif.). Following electrophoresis in SDS gel in a mini-gel apparatus (Bio-Rad), the gels were electro-transferred to nitrocellulose membranes (Schleicher and schuell, Dassel, Germany). The nitrocellulose membranes were washed with distilled water for 5 min, and then blocked for 60 min. using a blocking solution composed of 2% bovine serum albumin (Fraction V, Sigma, St. Louis Mo.), 2.5% milk powder (Bio-Rad), Tris (Sigma) pH 7.5 10 mM, NaCl 150 mM and 0.02% thimerosal (Sigma). After 3×10 min. washes in PBS/TWEEN® 20 (PBS/T; 0.02%, Sigma), primary antibodies (1/1000) were incubated with the membranes in PBS/TWEEN® for 60 min. Following another series of washes in PBS/T (3×10 min), the membranes were incubated with a secondary antibody (Peroxidase conjugated anti rabbit or anti mouse, IgG Jackson ImmunoResearch, West Grove, Calif.) at a 1/2500 dilution in 2% milk in PBS solution for 60 min. After another 3×10 min washes, the membranes were incubated with the ECL reagent (for 60 seconds) and exposed to X-ray film. […]
molecule,measurement,setting,value
CO/N=C(\C(=O)N[C@@H]1C(=O)N2C(C(=O)O)=C(CSc3nc(=O)c(=O)[nH]n3C)CS[C@H]12)c1csc(N)n1 [ceftriaxone],incidence of diabetes,[1],60%
same,severity of adoptive EAE in recipient rats,"[2]; BP10 line stimulated 3 days with MBP in presence of 50 μg/ml antibiotic, 10^7 cells per rat",enhanced EAE severity
"CC1(C)S[C@@H]2[C@H](NC(=O)Cc3ccccc3)C(=O)N2[C@H]1C(=O)O [penicillin, benzylpenicillin]",radioactive penicillin-protein band in T-cell lysates,[3],single major penicillin-protein radioactive band was detected at 67 kD
same,Pen 9 reactivity with lysates of antibiotic-treated T cells,[4],reacted specifically to a major protein of the penicillin-treated T cells
same,half-life,[5],42 min
same,67 kD band representing penicilloylated albumin in tissue lysates,[6],appears in all tissues examined and is most abundant in serum
B1,severity of adoptive EAE mediated by the BP10 line,"[2]; BP10 line stimulated 3 days with 5 mg/ml in stimulation medium, control untreated line",could also enhance the encephalogenicity of the BP10 line
